Assay results reported in the SangsterLogP compilation.
Starred links: 1 amine or outer side, 2 acyl side, 3 side chain; linkers in the order of their positions; H or OH if unused. Positions of bridges follow the written chain, without caps; N, C: chain ends. Non-standard residues stand in square brackets, D forms with d. Residues, ends and D or L forms follow the SMILES beside them. Chains are numbered I, II in the order given. Actinocin(9to1) = Cc1c2oc3c(C)ccc(C(=O)[*:1])c3nc-2c(C(=O)[*:2])c(N)c1=O; NMeV = CN[CH](C(=O)O)C(C)C; Sar = CNCC(=O)O

Assay: method code SF, from Hansch, C. & Leo, A. (1987). Log P database [Dataset]. Pomona College Medicinal Chemistry Project.
Settings: not given

Row | SMILES | logP
1 | CN(C)/N=N/c1ccccc1C(=O)NNC(=O)CC#N | 1.44
2 | CCOS(=O)(=O)OCC | 1.14
3 | CNC(=S)NC | -0.24
4 | CNC(=O)CSP(=S)(OC)OC | 0.8
5 | CC(CN(C)C)CN1c2ccccc2Sc2ccccc21 (configuration not stated) | 4.71
6 | Cc1ccc2ncccc2c1 | 2.57
7 | CN(C)Cc1cccs1 | 1.67
8 | C=CCNC(=O)NCC=C | 0.64
9 | OCC(F)(F)C(F)(F)F | 1.23
10 | CNC(=O)C=C(C)OP(=O)(OC)OC | -0.2
11 | COC(=O)c1c(C)n(C)c2c1c1c(O)c3c(O)c(C)c4c(c32)C(=O)C(C)(OC=CC(OC)C(C)C(OC(C)=O)C(C)C(O)C(C)C(O)C(C)C=CC=C(C)C(=O)N1)O4 (configuration not stated) | 1.46
12 | CC(=O)Nc1cc(OCC(=O)O)ccc1Cl | 0.75
13 | CC(C)C1OC(=O)c2ccccc21 (configuration not stated) | 2.1
14 | COc1ccc(C=C(C(C)=O)C(C)=O)cc1 | 1.73
15 | FC(F)(F)C(F)(F)C(F)(F)C(F)(F)C(F)(F)F | 4.4
16 | Nc1ncc2ncn(COCCO)c2n1 | -0.96
17 | CCCOP(=O)(OCCC)OCCC | 1.87
18 | CCCCC1OC(=O)c2cc(N)ccc21 (configuration not stated) | 2.86
19 | CC(=O)C(=Cc1ccc(F)cc1)C(C)=O | 1.65
20 | c1ccc2[nH]nnc2c1 | 1.33
21 | N#C/N=N/c1ccccc1 | 2.3
22 | CCCCOc1ccc(C(N)=O)cc1 | 2.48
23 | CC(=O)Nc1ccc(C(C)(C)C)cc1 | 3.05
24 | c1cnc2nccnc2c1 | -0.04
25 | Cc1ccc(Nc2ccc(O)c3c2C(=O)c2ccccc2C3=O)cc1 | 3.12

Row | SMILES | logP
26 | CNc1ccccc1[N+](=O)[O-] | 2.18
27 | CCC1OC(=O)C(C)C(OC2CC(C)(OC)C(O)C(C)O2)C(C)C(OC2OC(C)CC(N(C)C)C2O)C(C)(O)CC(C)C(=O)C(C)C(OC(C)=O)C1C (configuration not stated) | 3.32
28 | CS(=O)(=O)NN=Cc1ccccc1 | 1.2
29 | CN(C=O)c1ccccc1 | 1.09
30 | Cc1ccccn1 | 1.11
31 | OCc1ccoc1 | 0.3
32 | COc1cccc(C(N)=O)c1 | 0.85
33 | COc1cc(C=NOC(=O)c2ccccc2OC)ccc1OCCO | 2.84
34 | O=C(CCl)Nc1ccccc1 | 1.63
35 | CC(=O)Oc1cccc(Cl)c1 | 2.32
36 | NC(=O)C(Cl)(Cl)Cl | 1.04
37 | CCOC(=O)c1ccccc1N | 2.57
38 | CN(C(=O)CCCl)c1ccc(S(=O)(=O)N(C)C)cc1 | 0.98
39 | CN(C)CCN(C)C | 0.3
40 | CNc1nc2ccccc2o1 | 1.82
41 | N#Cc1cccc(OC(=O)CNC(=O)c2ccccc2)c1 | 2.11
42 | FC(F)(F)Oc1ccccc1 | 3.17
43 | COC(=O)CNC(=O)c1ccccc1 | 0.82
44 | C[C@]12CCC(=O)C=C1CC[C@@H]1[C@@H]2CC[C@]2(C)C(=O)CC[C@@H]12 | 2.75
45 | CO[C@H]1C=CO[C@@]2(C)Oc3c(C)c(O)c4c(O)c(c(CN5CCN(C)CC5)c(O)c4c3C2=O)NC(=O)/C(C)=C\C=C/[C@@H](C)[C@@H](O)[C@@H](C)[C@H](O)[C@H](C)[C@@H](OC(C)=O)[C@H]1C | 1.76
46 | CC1=Nc2cc(Cl)ccc2S(=O)(=O)N1 | 1.21
47 | O=C(Nc1ccc(Br)cc1)C(F)(F)F | 3.34
48 | CC(=O)Nc1cccc(I)c1 | 2.64
49 | CNC(=S)NC12CC3CC(CC(C3)C1)C2 | 2.67
50 | CN(C)C(=O)c1cccs1 | 0.75

Row | SMILES | logP
51 | COc1cc2c(c(OC)c1OC)-c1ccc(OC)c(=O)cc1[C@@H](N)CC2 | 0.67
52 | COc1ccc(C(C)=O)c(N)c1 | 1.76
53 | CCCCC(=O)Nc1ccc(Cl)c(Cl)c1 | 4.17
54 | O=[N+]([O-])c1cc[n+]([O-])cc1 | -0.55
55 | COC(=O)c1ccsc1 | 1.76
56 | c1ccc(-c2ccc(C(c3ccccc3)n3ccnc3)cc2)cc1 (configuration not stated) | 4.77
57 | NS(=O)(=O)c1cccc(OC(=O)CNC(=O)c2ccccc2)c1 | 0.84
58 | O=CC=Cc1ccco1 | 1.15
59 | Nc1cc(=O)[nH]cn1 | -0.99
60 | COc1cccc(OC)c1 | 2.21
61 | CC(=O)C(F)(F)F | 0.2
62 | O=C(O)COc1ccc(Cl)c(I)c1 | 3.1
63 | CSc1nccc(O)n1 | 0.22
64 | N#CCc1ccsc1 | 1.26
65 | c1ccc(SSc2ccccc2)cc1 | 4.41
66 | CCOC(=O)C(=Cc1ccc(OC)cc1OC)C(C)=O | 2.41
67 | CCCCC1C(=O)NC(=O)NC1=O | 0.77
68 | O=C(O)COc1ccc(Cl)c(Br)c1 | 2.75
69 | CCC1(c2ccccc2)C(=O)NCNC1=O | 0.91
70 | O=c1nccc[nH]1 | -1.62
71 | CC(=O)Nc1ccc2c(c1)S(=O)(=O)c1ccc(C)cc1C2=O | 2.76
72 | NC(=O)[C@H](Cc1ccccc1)NC(=O)[C@@H](N)Cc1ccccc1 (H-Phe-Phe-NH2) | 1.13
73 | CCC(C)C1=Nc2ccc(Cl)cc2S(=O)(=O)N1 (configuration not stated) | 2.47
74 | CC(=O)c1ccco1 | 0.52
75 | N#CN=[N+]([O-])c1ccc(F)cc1 | 1.8

Row | SMILES | logP
76 | Cn1ccc(=O)cc1 | -1.22
77 | CCCOCCC | 2.03
78 | COc1cccc2c1C(=O)c1c(O)c3c(c(O)c1C2=O)C[C@@](O)(C(=O)CO)C[C@@H]3O | 2.74
79 | CCNC(=S)Nc1ccccc1 | 1.42
80 | CCNC(N)=O | -0.74
81 | COc1cn[nH]c1 | 0.37
82 | C(=N\c1ccccc1)/c1ccccc1 | 2.82
83 | O=C(O)CONC(=O)c1ccccc1 | -0.27
84 | CC(=O)OCC(=O)[C@@]12OC(C)(C)O[C@@H]1C[C@H]1[C@@H]3C[C@H](F)C4=CC(=O)C=C[C@]4(C)[C@@]3(F)[C@@H](O)C[C@@]12C | 3.19
85 | O=c1cc(-c2ccccc2)oc2cc(O)ccc12 | 3.62
86 | O=C(Nc1ccccc1)NC1CC(O)C(CO)OC1O (configuration not stated) | -0.61
87 | COc1ccc(-c2ncc[nH]2)c(OC)c1 | 1.72
88 | O=c1[nH]c2ccccc2[nH]c1=O | 0.2
89 | CN(N=Nc1ccc(C(N)=O)cc1)C(C)(C)C | 2.61
90 | O=c1[nH]c(=O)n([C@H]2C[C@H](O)[C@@H](CO)O2)cc1Br | -0.29
91 | CC(=O)Sc1ccccc1 | 2.23
92 | O=C1C=CC(=O)c2c(O)cccc21 | 1.92
93 | CC(=O)C(=Cc1ccc(Cl)cc1)C(C)=O | 2.32
94 | c1ccc2c(c1)CCC2 | 3.33
95 | CCOC(=O)C(C#N)=Cc1ccccc1 | 2.43
96 | CCOP(=S)(OCC)Oc1ncn(-c2ccccc2)n1 | 3.55
97 | O=S1(=O)NC(c2ccccc2)=Nc2ccccc21 | 1.78
98 | C[C@@H]1CC[C@H](C)N1C(=O)Nc1ccccc1 | 2.33
99 | COc1cc(C=NO)ccc1OCCO | 0.82
100 | c1ccc(OCCOc2ccccc2)cc1 | 3.81

Row | SMILES | logP
101 | OCCOc1c(Br)cc(Br)cc1Br | 3.42
102 | CCOC(=O)c1csc(C=Cc2ccc([N+](=O)[O-])o2)n1 | 1.3
103 | CCN(CC)CCNc1ccc(C)c(Cl)c1 | 4.14
104 | CC(C)(C)[N+]([O-])=NC#N | 1.4
105 | O=c1[nH]nnc2ccccc12 | 0.83
106 | CC(=O)Nc1ccc(Oc2ccccc2)cc1 | 3.13
107 | CC1=Nc2cc(Br)ccc2S(=O)(=O)N1 | 1.37
108 | CCc1ccc2c(c1)N=C(C)NS2(=O)=O | 1.25
109 | CC(C)c1ccccc1SCc1c(O)c(C(=O)O)cc2ccccc12 | 5.06
110 | NNC(=O)c1ccccc1 | 0.21
111 | O=[N+]([O-])c1ccc(C=Cc2nccn2Cc2ccncc2)o1 | 1.67
112 | Cc1ccc([N+]([O-])=NC#N)cc1 | 2.39
113 | Cn1nnc2ccccc2c1=O | 0.84
114 | NC(=O)c1ccccc1Br | 0.73
115 | COc1ccc(-c2nc3cnccc3[nH]2)c(OC)c1 | 2.56
116 | c1cnc2ncncc2n1 | -0.58
117 | CCOP(=O)(N1CC1(C)C)N1CC1(C)C (configuration not stated) | 1.02
118 | COc1cc(O)cc(OC)c1 | 1.64
119 | O=[N+]([O-])c1ccc(C=Cc2nccn2Cc2ccccc2)o1 | 1.55
120 | CC(=O)C(=Cc1ccccc1C)C(C)=O | 1.98
121 | Cc1csc(N=C(N)N)n1 | 1.24

Same assay, conditions: pH 1.0

Row | SMILES | logD
122 | O=C(O)c1ccccc1S | 2.39
123 | O=C(O)c1ccccc1-c1ccccc1C(=O)O | 2.07

Same assay, conditions: pH 1.4

Row | SMILES | logD
124 | Oc1c(Br)cc(Br)c(O)c1Br | 4.37

Same assay, conditions: pH 3.0

Row | SMILES | logD
125 | Cn1nnnc1SCC1=C(C(=O)O)N2C(=O)C(NC(=O)Cc3cccs3)C2SC1 (configuration not stated) | 0
126 | CC1=C(C(=O)O)N2C(=O)[C@@H](NC(=O)Cc3cccs3)[C@H]2SC1 | 0.61

Same assay, conditions: pH 7.0

Row | SMILES | logD
127 | O=Cc1cccc([N+](=O)[O-])c1 | 1.47
128 | COc1cccc(C(C)=O)c1 | 1.84
129 | O=[N+]([O-])c1cccc(C(F)(F)F)c1 | 2.62
130 | COc1cccc(S(C)(=O)=O)c1 | 0.86

Same assay, conditions: pH 7.2

Row | SMILES | logD
131 | CO/N=C(/C(=O)N[C@@H]1C(=O)N2C(C(=O)OC(C)OC(C)=O)=C(COC(N)=O)CS[C@@H]12)c1ccco1 (some centres not stated) | 0.89

Same assay, conditions: pH 7.4

Row | SMILES | logD
132 | Cc1c2oc3c(C)ccc(C(=O)NC4C(=O)NC(C(C)C)C(=O)N5CCCC5C(=O)N(C)CC(=O)N(C)C(C(C)C)C(=O)OC4C)c3nc-2c(C(=O)NC2C(=O)NC(C(C)C)C(=O)N3CCCC3C(=O)N(C)CC(=O)N(C)C(C(C)C)C(=O)OC2C)c(N)c1=O (configuration not stated) (I: TVP[Sar][NMeV] / II: TVP[Sar][NMeV]; ester I:1-I:C, II:1-II:C; linker I:N-II:N via Actinocin(9to1); configuration not given here) | 3.21
133 | Nc1n[nH]c(N)n1 | -1.61
134 | Cc1c(N(C)C)c(=O)n(C)c(=O)n1-c1ccccc1 | 1.19
135 | C=CCn1c(=O)c(N(C)C)c(C)n(-c2ccccc2)c1=O | 1.98
136 | O=c1[nH]c(=O)n(C2CCCO2)cc1F (configuration not stated) | -0.27
137 | CC(=O)Nc1ccccc1C(C)C | 1.71
138 | Cc1c(N(C)C)c(=O)n(-c2ccccc2)c(=O)n1CCO | 0.85
139 | CCN(CC)c1c(C)n(-c2ccccc2)c(=O)n(C)c1=O | 2.19
140 | CCn1c(=O)c(N(C)C)c(C)n(-c2ccccc2)c1=O | 2.29

Same assay, conditions: pH 11.0

Row | SMILES | logD
141 | CN(C)CCc1cccnc1 | 0.82
142 | CC(C)N(Cc1cccnc1)C(C)C | 2.27
143 | c1cncc(CN2CCCC2)c1 | 1.1
144 | CN(C)Cc1cccnc1 | 0.49

Same assay, conditions: pH 13.0

Row | SMILES | logD
145 | CC1(C)N=C(N)N=C(N)N1c1ccc(C(F)(F)F)cc1 | 1.22
146 | CC1(C)N=C(N)N=C(N)N1c1ccc(N)cc1 | -0.59
147 | C=CCN(CC=C)CC=C | 2.59
